Consider three molecules from patent US20150239890A1, “CRYSTAL OF N-[2-(AMINO)-2-METHYLPROPYL]-2-METHYLPYRAZOLO[1,5-A]PYRIMIDINE-6-CARBOXAMIDE” (SANWA KAGAKU KENKYUSHO CO., LTD., priority 2012, published 2015).

Format in all cases: physicochemical
A short description of data set [1]: Stability test in (sealed) condition at 60° C., purity by HPLC. Particulars: for Purity (60° C., sealed) After 4 weeks: sealed brown glass bottle; for Purity (60° C., sealed) Initial stage value: before storage. As to the method: Each test sample of an amorphous compound 1 prepared by a modification method, an amorphous compound 2 obtained by forming a free base of the amorphous compound 1 into hydrochloride in the same method as in Example 1 of Patent Literature 1, a crystal of the compound 1, which was prepared by the method described in Example 1 of the present specification, was charged into a brown glass bottle by each amount of 10 mg and preserved at 60° C., and the purities were compared after 4 weeks. […] Not that the purity measurement was carried out in the following conditions.
Column: Develosil CN-5 (Nomura Chemical), 250 mm×4.6 mmφ
Mobile phase: 20 mM NaH2PO4 buffer (pH 6.9)/MeCN=80/20
Wavelength: UV 247 nm and 220 nm
Concentration of test sample: 100 μg/ml (H2O)

Data set [2] can be described thus: Hygroscopicity test in condition of 66% RH (20° C.). As to the method: Each test sample of an amorphous compound 1 prepared in a modification method, an amorphous compound 2 obtained by forming a free base of the amorphous compound 1 into hydrochloride in the same method as in Example 1 of Patent Literature 1, a crystal of the compound 1, which was prepared by the method described in Example 1 of the present specification, was charged into a desiccator at a humidity of 66% RH that was prepared by an aqueous saturated sodium nitrite solution by each amount of 100 mg and left stood at 20° C. Change in weights of each test sample was measured with time and a weight increase ratio was calculated.

The nature of data set [3]: Solubility of the crystal in water. Particulars: for solubility: 20 °C, thermodynamic from solid. As to the method:
1. The crystal has peaks around at 9.8°, 17.4°, 18.6°, 25.3°, and 25.8° as diffraction angles represented by 2θ in the powder X-ray diffraction pattern. 2. The crystal has absorption recognized around at wave numbers of 3340 cm^−1, 1664 cm^−1, and 1654 cm^−1 in the infrared absorption spectrum. 3. The crystal has a heat adsorption peak around at 120° C. in the differential scanning calorimetry (DSC). 4. The crystal has a degree of solubility to water of 1 g/ml or higher and the solubility is classified into “very soluble” according to the Japanese Pharmacopoeia.
Solubility (20° C.): >1 g/ml (very soluble)

[4] abbreviates: 66% RH, 20° C., after 7 days, listed as amorphous compound 1.
[5] abbreviates: 66% RH, 20° C., after 7 days, listed as crystal of the compound 1.

Where two headings read alike, the source gives them in different places.

For the molecule `Cc1cc2ncc(C(=O)NCC(C)(C)NCC(=O)N3CCC[C@H]3C#N)cn2n1` [Amorphous compound 1, N-[2-({2-[(2S)-2-cyanopyrrolidine-1-yl]-2-oxoethyl}amino)-2-methylpropyl]-2-methylpyrazolo[1,5-a]pyrimidine-6-carboxamide], in data set [1] (60° C., after 4 weeks), the “Purity (60° C., sealed) After 4 weeks” value amounted to 99.4%. Also, the “Purity (60° C., sealed) After 4 weeks” value in data set [1] (60° C., after 4 weeks, listed as amorphous compound 1) is 99.4%. Also, in data set [1], the “impurity / area value of an impurity peak, initial stage” value (from here on “impurity / area value”) is reported as “not observed to contain an impurity” and the “Purity (60° C., sealed) Initial stage value” is 100.0%. For the same molecule, in data set [2] (66% RH, 20° C., after 7 days), the “Weight increase ratio (66% RH, 20° C.) After 7 days” value was 1.7% and the “purity After 7 days (66% RH, 20° C.)” value came to 99.8%. In addition, in data set [2] (setting [4]), the “Weight increase ratio (66% RH, 20° C.) After 7 days” value is reported as 1.7% and the “purity After 7 days (66% RH, 20° C.)” value is 99.8%. Moreover, in data set [2], the “Weight increase ratio (66% RH, 20° C.) Initial stage value” came to 0 and the “purity, Initial stage value (66% RH, 20° C. test)” value (“purity … (66% RH, 20° C. test)” below) worked out at 100.0%.

On to `Cc1cc2ncc(C(=O)NCC(C)(C)NCC(=O)N3CCC[C@H]3C#N)cn2n1` [Amorphous compound 2], for which, in data set [1] (60° C., after 4 weeks), the “Purity (60° C., sealed) After 4 weeks” value was 96.1%. Moreover, the “Purity (60° C., sealed) After 4 weeks” value in data set [1] (60° C., after 4 weeks, listed as amorphous compound 2) was found to be 96.1%. Besides, the “area value of an impurity peak after 4 weeks” value in data set [1] (60° C., sealed, after 4 weeks) is reported as 3.1%. For the same molecule, in data set [1], the “impurity / area value” value came to 0.6% and the “Purity (60° C., sealed) Initial stage value” turned out to be 98.8%. For the same molecule, the “Purity (60° C., sealed) Initial stage value” in data set [1] (listed as amorphous compound 2) was 98.8%. Further, in data set [2] (66% RH, 20° C., after 7 days), the “Weight increase ratio (66% RH, 20° C.) After 7 days” value is reported as 1.7% and the “purity After 7 days (66% RH, 20° C.)” value came out at 90.5%. Further, in data set [2], the “Weight increase ratio (66% RH, 20° C.) Initial stage value” amounted to 0 and the “purity … (66% RH, 20° C. test)” value is given as 97.9%.

On to `Cc1cc2ncc(C(=O)NCC(C)(C)NCC(=O)N3CCC[C@H]3C#N)cn2n1` [Crystal of compound 1, N-[2-({2-[(2S)-2-cyanopyrrolidine-1-yl]-2-oxoethyl}amino)-2-methylpropyl]-2-methylpyrazolo[1,5-a]pyrimidine-6-carboxamide], for which the “Solubility (20° C.) class” value in data set [3] (20° C.) is “very soluble”. Moreover, in data set [3] (water), the “solubility class according to the Japanese Pharmacopoeia” value is listed as “very soluble”. Besides, the solubility (in general, how much of the substance goes into solution per volume) in data set [3] (water, water, 20° C., read-out: Solubility (20° C.)) is more than 1000 mg/mL. In addition, in data set [3] (water, water, water, read-out: degree of solubility to water), the solubility was not below 1000 mg/mL. In data set [1] (60° C., after 4 weeks), the “Purity (60° C., sealed) After 4 weeks” value is recorded as 100.0%. For the same molecule, in data set [1] (60° C., after 4 weeks, listed as crystal of the compound 1), the “Purity (60° C., sealed) After 4 weeks” value is on record as “not changed”. In addition, in data set [1], the “impurity / area value” value is given as “not observed to contain an impurity” and the “Purity (60° C., sealed) Initial stage value” is listed as 100.0%. In data set [2] (66% RH, 20° C., after 7 days), the “Weight increase ratio (66% RH, 20° C.) After 7 days” value is 0.01%; the “hygroscopicity (in words)” value is on record as “hygroscopicity was not observed”; the “purity After 7 days (66% RH, 20° C.)” value is recorded as 100.0%. Moreover, in data set [2] (setting [5]), the “Weight increase ratio (66% RH, 20° C.) After 7 days” value amounted to 0.01% and the “purity After 7 days (66% RH, 20° C.)” value is on record as “change in the purity was also not recognized”. Also, in data set [2], the “Weight increase ratio (66% RH, 20° C.) Initial stage value” is reported as 0 and the “purity … (66% RH, 20° C. test)” value was determined as 100.0%.
